Columns and labels:
Human μ-calpain = biological target: T1, Human μ-calpain (Homo sapiens, UniProt P07384); assay: Calpain I test (Ki, fluorogenic substrate Suc-Leu-Tyr-AMC); assay type: biochemical; details: human μ-calpain from erythrocytes, reversible inhibition
T1 construct: Human μ-calpain is isolated from erythrocytes; from tissue; host or cells: human erythrocytes (purified on DEAE Sepharose, phenyl Sepharose, Superdex 200 and Blue Sepharose)
T1 sequence (P07384 1-714): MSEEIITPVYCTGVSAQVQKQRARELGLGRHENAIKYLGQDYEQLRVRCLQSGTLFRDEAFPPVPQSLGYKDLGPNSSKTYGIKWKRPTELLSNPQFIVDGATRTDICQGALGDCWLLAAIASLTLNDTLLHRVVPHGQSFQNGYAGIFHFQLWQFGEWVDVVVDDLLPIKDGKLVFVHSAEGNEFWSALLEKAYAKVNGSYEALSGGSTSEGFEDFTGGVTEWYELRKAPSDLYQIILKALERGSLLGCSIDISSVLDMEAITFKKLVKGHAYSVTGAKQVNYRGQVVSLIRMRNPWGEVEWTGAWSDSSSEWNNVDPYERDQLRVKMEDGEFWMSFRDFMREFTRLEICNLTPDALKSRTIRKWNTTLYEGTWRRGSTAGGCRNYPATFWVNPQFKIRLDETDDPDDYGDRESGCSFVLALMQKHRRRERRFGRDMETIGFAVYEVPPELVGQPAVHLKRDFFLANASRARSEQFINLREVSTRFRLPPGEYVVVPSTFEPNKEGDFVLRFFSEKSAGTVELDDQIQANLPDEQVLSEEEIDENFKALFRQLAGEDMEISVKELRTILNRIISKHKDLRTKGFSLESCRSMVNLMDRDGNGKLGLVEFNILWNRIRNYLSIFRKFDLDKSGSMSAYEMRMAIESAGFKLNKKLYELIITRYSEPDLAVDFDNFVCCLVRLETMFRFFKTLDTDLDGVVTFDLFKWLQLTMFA
T1 sequence (P04632 1-268 partner): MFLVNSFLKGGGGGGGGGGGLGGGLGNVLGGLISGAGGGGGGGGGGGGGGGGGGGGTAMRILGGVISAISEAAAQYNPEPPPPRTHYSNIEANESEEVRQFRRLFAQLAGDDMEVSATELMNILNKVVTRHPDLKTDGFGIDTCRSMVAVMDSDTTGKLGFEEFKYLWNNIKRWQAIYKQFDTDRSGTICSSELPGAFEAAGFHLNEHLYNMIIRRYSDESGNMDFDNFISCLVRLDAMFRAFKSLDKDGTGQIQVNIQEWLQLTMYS
Protocol: Calpain I and Calpain II Test
The inhibitory properties of calpain inhibitors are tested in buffer containing 50 mM tris-HCl, pH 7.5; 0.1 M NaCl; 1 mM dithiotreithol [sic]: 0.11 mM CaCl2, using the fluorogenic calpain substrate Suc-Leu-Tyr-AMC (25 mM, dissolved in DMSO, Bachem/Switzerland) (Sasaki et al. J. Biol. Chem. 1984, Vol. 259, 12489-12494). Human μ-calpain is isolated from erythrocytes following the methods of Croall and DeMartino (BBA 1984, Vol. 788, 348-355) and Graybill et al. (Bioorg. & Med. Lett. 1995, Vol. 5, 387-392). After several chromatographic steps (DEAE Sepharose, phenyl Sepharose, Superdex 200 and Blue Sepharose), the enzyme is obtained at a purity of […], as assessed by SDS-PAGE, Western blot analysis and N-terminal sequencing. The fluorescence of the cleavage product 7-amino-4-methylcoumarin (AMC) is followed in a Spex-Fluorolog fluorimeter at λex =380 nm and λem =460 nm. […]
In a typical experimental mixture, 10 μl of substrate (250 μm final concentration) and then 10 μl of μ-calpain (2 μg/ml final concentration, ie. 18 nM) are added to a 1 ml cuvette which contains buffer. The calpain-mediated cleavage of the substrate is measured for from 15 to 20 min. […] Ki values are determined using the customary equation for reversible inhibition, ie. […]

calpain = details: M. R. Angelastro et al., J. Med. Chem. 1990,33, 11-13; cited from earlier work

| Compound | Ki (Human μ-calpain) | inhibitor of calpain (in words) (calpain) |
| --- | --- | --- |
| (S)-N-(1-Ethoxycarbonyl-1-oxo-3-phenylpropan-2-yl)-2-phenylbenzamide [Example 24] | < 10 µM | – |
| COC(=O)C(=O)C(Cc1ccccc1)NC(=O)c1ccccc1 (centres unmarked) [Ph-CONH--CH(CH2 Ph)--CO--COOCH3] | – | weak inhibitor |

— patent US6103720A, “Ketobenzamides as calpain inhibitors” (BASF Aktiengesellschaft, priority 1996, dated 2000)
